Measured values taken from patent publication US20240158639A1, “PROCESS FOR PREPARING INDOCYANINE GREEN” (ICROM Srl, priority 2021, published 2024).
Where two headings read alike, the source gives them in different places.

Tests used:
[1] = Stability of the HPLC sample solution; assay type: physicochemical
Procedure: Sonicate for 5 minutes verifying complete solubilization.

[2] = in vivo, iv; cited from earlier work
[3] = 10° C., 30 days, in nitrogen, aluminium + polythene, MeOH
[4] = 10° C., 30 days, no nitrogen, polythene, MeOH
[5] = 20-25° C., 30 days, in nitrogen, aluminium + polythene, MeOH
[6] = 20-25° C., 30 days, no nitrogen, polythene, MeOH
[7] = t0, no nitrogen, polythene, diluent MeOH, % area 254 nm

1H-benz[e]indole, 2-[7-[1,3-dihydro-1,1-dimethyl-3-(4-sulfobutyl)-2H-benz[e]indol-2-ylidene]-1,3,5-heptatrienyl]-1,1-dimethyl-3-(4-sulfobutyl) hydroxide, inner salt, sodium salt [compound of formula (I)]
time for which the sample solution is stable ([1]; sample preparation method 1: 40 mg in 50 ml mixture phase 70:30 A:B): ≤ 30 min | time for which the sample solution is stable ([1]; sample preparation method 2: 40 mg in 50 ml methanol): ≤ 30 min | half-life of elimination by the body [2]: 3 to 4 min

CC1(C)C(/C=C/C=C/C=C/C=C2\N(CCCCS(=O)(=O)[O-])c3ccc4ccccc4c3C2(C)C)=[N+](CCCCS(=O)(=O)[O-])c2ccc3ccccc3c21.[Na+] [067/046]
% rt 3.5 (A) [3]: nq | % rt 4.0 [3]: 0.02% | % rt 8.9 [3]: 0.04% | INNmax (unknown maximum impurity) % [3]: 0.07% | Purity [3]: 99.77% | % rt 3.5 (A) [4]: nq | % rt 4.0 [4]: 0.04% | % rt 8.9 [4]: 0.04% | INNmax (unknown maximum impurity) % [4]: 0.06% | Purity [4]: 99.84% | % rt 3.5 (A) [5]: nq | % rt 4.0 [5]: 0.03% | % rt 8.9 [5]: 0.05% | INNmax (unknown maximum impurity) % [5]: 0.08% | Purity [5]: 99.71% | % rt 3.5 (A) [6]: nq | % rt 4.0 [6]: 0.076% | % rt 8.9 [6]: 0.05% | INNmax (unknown maximum impurity) % [6]: 0.076% | Purity [6]: 99.78% | % rt 3.5 (A) [7]: nq | % rt 4.0 [7]: 0.02% | % rt 8.9 [7]: 0.03% | INNmax (unknown maximum impurity) % [7]: 0.07% | Purity [7]: 99.73%
